# According to patent US20260251642A1, “MOLECULAR TENSION SENSOR WITH NUCLEIC ACIDS AND HUH-TAGS” (REGENTS OF THE UNIVERSITY OF MINNESOTA, priority 2022, published 2026):
# Where “and” joins values, the source holds several entries; their conditions need not be identical. Equal entries are not always repeated.
# Assays:
# CHO-K1 cells = experiment: RAD-TGT rupture and delivery, flow cytometry readout, CHO-K1 cells; assay type: cell-based; conditions: versus DMSO
# Protocol: (§1) RAD-TGT Synthesis: TGTs were designed using previously characterized DNA sequences with a 5′ extension to allow for HUH binding. The following oligonucleotides were purchased from Integrated DNA Technologies. To prepare TGTs, anchor and ligand strands were mixed in a 1.1:1 ratio and then annealed in a 1× annealing buffer by heating at 98° C. for five minutes followed by cooling at room temperature for 1 hour. Excess bottom strand was used to mitigate any single stranded fluorescent top strand which may be internalized resulting in false positives. RAD-TGTs were then generated by reacting HUH-ligand of interest with the annealed duplex in a 2:1 ratio. […]
# (§2) RAD-TGT Experimental Setup: Cells of interest were trypsinized for five minutes and transferred to Opti-MEM Reduced Serum Media. Cells were then counted using an automated cell counter. […] Cells were removed from wells and analyzed with a BD ACCURI C6 Plus Personal Flow Cytometer without further washing.
# (§3) Statistical Analysis: In general, each experiment was performed on at least three separate days with 1-3 separated wells per day. […] The fluorescence data were concatenated to produce the dot plots. The medians of the normalized data for each biological replicate were used to overlay on the dot plot, and statistical significance was calculated using unpaired ANOVA as previously described.
# U251 cells = experiment: RAD-TGT rupture and delivery, flow cytometry readout, U251 cells; assay type: cell-based, human; conditions: versus DMSO
# Protocol: as §1, §2, §3
# integrins on U251 cells [1] = molecular target: integrins on U251 cells
# integrins on U251 cells [2] = experiment: cell-based or functional assay
# U251 and CHO-K1 cells = experiment: Soluble RAD-TGT (echistatin) titration on U251 and CHO-K1 cells; assay type: cell-based
# Protocol: FIG. 15. Soluble RAD-TGT titration highlights differences in integrin composition between cell lines. Soluble RAD-TGTs composed of the echistatin conjugated to fluorescently labeled ligand strand annealed to the non-anchor strand was added into the wells at varying concentrations ranging from […]. The total picomolar (pmol) range of oligo was from […]. Thus, the standard RAD-TGT experiment in the main text contained […] oligo assuming all oligo properly adhered, thus this is representative of experimental conditions. From this it was concluded that U251 cells internalize the soluble RAD-TGT at a greater rate than the CHO-K1 cells, […]
# integrin receptors = conditions: cited from earlier work
compound,measurement,setting,value
"Cc1ccc2c(c1)C(=O)[C@]1(O)CCN(c3ccc(N)cc3)C1=N2 [Para-amino-blebbistatin, reference compound]",decrease in fluorescence upon treatment,"CHO-K1 cells; CHO-K1 on WDV-Echi RAD-TGTs, 50 μM, 30 minutes pre-incubation",~ 30%
same,"effect on median fluorescence, FN ligand",CHO-K1 cells; CHO-K1 on WDV-FN CY5-labeled RAD-TGTs,reduces median fluorescence
same,decrease in fluorescence upon treatment,"U251 cells; U251 on WDV-Echi RAD-TGTs, 50 μM, 30 minutes pre-incubation",~ 30%
same,"effect on median fluorescence, FN ligand",U251 cells; U251 on WDV-FN CY5-labeled RAD-TGTs,reduces median fluorescence
WDV-echistatin integrin ligand (echistatin recombinantly expressed as a fusion protein with the HUH- (from UniProt P17347 131-179),"fold difference in bound echistatin, U251 against CHO-K1 cells",integrins on U251 cells [1],3 fold and 4 fold
same,"increase in median fluorescence, 12 pN RAD-TGT, U251 cells, flow cytometry",integrins on U251 cells [2],12 fold
same,"increase in median fluorescence, 54 pN RAD-TGT, U251 cells, flow cytometry",integrins on U251 cells [2],7 fold
Echistatin,difference in bound echistatin between U251 and CHO-K1 cells,U251 and CHO-K1 cells,three-to-four-fold
same,affinity for a broad range of integrin receptors,integrin receptors,sub-nanomolar
